Laboratory results: PubChem BioAssay (NCI)
Several values for one entry are separate records, joined by “and”; a condition that tells them apart may be missing. Identical values can stand only once.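 Growth conditions: 96-well plates. Treatment: test compound, 48 hours, 5 concentrations. Analysis: linear interpolation between bracketing concentrations; unreached endpoints set to highest concentration. Here, GI50 denotes the concentration required for 50% inhibition of growth. At the TGI there is no net growth.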

Assays:
Experiment in all cases: inhibition of tumour cell growth, NCI panel, 48 h
NCI-H522 lung = test system: NCI-H522 lung
SW-620 colon = test system: SW-620 colon
MALME-3M melanoma = test system: MALME-3M melanoma
IGROV1 ovarian = test system: IGROV1 ovarian
SF-295 CNS = test system: SF-295 CNS
NCI-H460 lung = test system: NCI-H460 lung
DU-145 prostate = test system: DU-145 prostate
UO-31 renal = test system: UO-31 renal
TK-10 renal = test system: TK-10 renal
EKVX NSCLC = test system: EKVX NSCLC

Structure (SMILES) | GI50 (NCI-H522 lung) [µM] | TGI (NCI-H522 lung) [µM] | GI50 (SW-620 colon) [µM] | TGI (SW-620 colon) | GI50 (MALME-3M melanoma) [µM] | TGI (MALME-3M melanoma) [µM] | GI50 (IGROV1 ovarian) [µM] | TGI (IGROV1 ovarian) | GI50 (SF-295 CNS) [µM] | TGI (SF-295 CNS) | GI50 (NCI-H460 lung) [µM] | TGI (NCI-H460 lung) | GI50 (DU-145 prostate) [µM] | TGI (DU-145 prostate) [µM] | GI50 (UO-31 renal) [µM] | TGI (UO-31 renal) [µM] | GI50 (TK-10 renal) [µM] | TGI (TK-10 renal) [µM] | GI50 (EKVX NSCLC) [µM] | TGI (EKVX NSCLC) [µM]
CN(C)CC1CCn2c(c(C3=C(c4cn(C)c5ccccc45)C(=O)NC3=O)c3ccccc32)C1 (stereo not given) | 4.07 | 7.95 | 4.16 | 8.32 µM | 3.59 | 7.31 | 5.22 | 10.1 µM | 4.46 | 9.06 µM | 4.57 | 8.68 µM | 4.91 | 10.9 | 2.69 | 5.96 | 3.03 | 7.27 |  | 
C=C[C@]1(C)C=C2C(=O)[C@@]3(O)OC(=O)[C@@]4(CCCC(C)(C)[C@H]34)[C@@]2(O)CC1 | 0.57 | 2.03 | 0.955 | 3.36 µM | 0.926 | 2.8 | 2.16 | 4.58 µM | 4.43 | 17.8 µM | 3.39 | 13.9 µM | 1.67 | 3.69 | 1.31 | 2.66 | 1.49 | 2.92 |  | 
Cc1ccc2sc3c(NCCCNCCO)nc4ccccc4c3c(=O)c2c1 | 1.66 | 3.43 | 1.62 | 3.13 µM | 1.69 | 3.18 | 1.59 | 3.14 µM | 1.77 | 3.24 µM | 1.7 | 3.24 µM | 1.71 | 3.15 | 1.28 | 2.58 |  |  | 1.61 | 3.08
Nc1ccn([C@@H]2C=C(CO)[C@@H](O)[C@H]2O)c(=O)n1 | 0.0242 |  |  | 303 µM and > 625 µM |  |  |  | 222 µM and > 625 µM |  | 316 µM and > 625 µM |  | 2.27 µM and 9.48 µM and 8.82 µM | 0.05 | 500 |  |  | 0.184 | 431 | 2.77 | 134
CC[C@H](C)C(=O)O[C@H]1CCC=C2C=C[C@H](C)C(CCC3C[C@@H](O)CC(=O)O3)[C@H]21 (stereo not given in full) |  |  | 12 | > 100 µM |  |  |  |  | 1.58 | > 100 µM | 4.9 | > 100 µM | 74.8 | > 100 |  |  | 18.5 | > 100 | 12.5 | > 100
Cn1cc(C2=C(c3c4n(c5ccccc35)CCC(CN)CC4)C(=O)NC2=O)c2ccccc21 (stereo not given) | 4.08 | 8.11 | 3.87 | 7.9 µM | 3.8 | 7.88 | 3.98 | 8.75 µM | 4.01 | 8.02 µM | 4.21 | 8.19 µM | 4.55 | 8.21 | 4.07 | 7.91 | 3.31 | 6.95 |  | 
COc1cc(C(=O)n2nc(N3CCN(C)CC3)c3cc(N)ccc32)cc(OC)c1OC | 2.01 | 8.87 | 5.28 | > 100 µM | 5.12 | 50.3 | 4.88 | > 100 µM | 3.54 | 18.2 µM | 4.34 | > 100 µM | 3.99 | > 100 | 2.87 | 18.1 | 15.6 | > 100 |  | 
CC(C)=CCC/C(C)=C/CC/C(=C/COP(=O)(OCc1ccc([N+](=O)[O-])o1)N(C)CCCCCl)C(C)(C)C (stereo not given) | 2.66 | 10 | 3.07 | 8.57 µM |  |  | 6.29 | 22.5 µM |  |  | 5 | 11.5 µM | 1.61 | 9 | > 23.3 | > 44.1 | 1.72 | 22.2 | 6.48 | 22.4
CCOC(=O)c1c(Cl)c2c(n1Cc1cc(OC)cc(OC)c1)-c1oncc1CCC2 | 0.0304 | 0.195 | 0.344 | > 100 µM | 0.118 |  | 0.317 | > 54.8 µM | 0.246 | 1.8 µM | 0.375 | > 100 µM | 0.35 | 97.7 | 1.04 | > 100 | 10.3 | > 100 |  | 
COC(=O)c1c2c(c(C)[n+]([O-])c1C)C(=O)C(NCc1ccc(F)c(F)c1)=CC2=O | 1.57 | 3.75 | 2.17 | 6.89 µM | 0.238 | 0.874 |  |  | 1.88 | 4.64 µM | 2.13 | 10.2 µM | 2.66 | 7.61 | 1.94 | 6.9 |  |  | 1.84 | 4.39
COc1ccc(F)cc1C(=O)c1cnc(NC2CCN(S(C)(=O)=O)CC2)nc1N | 4.3 | 14.7 | 0.636 | > 16.6 µM | 3.57 | > 16.8 | 1.84 | > 13.6 µM | 1.68 | > 15.5 µM | 0.783 | > 25 µM | 5.52 | 24.5 | 3.69 | > 18.6 | 1.83 | 14.7 |  | 
